Measured values taken from patent US20120130481A1, “LOCAL VASCULAR DELIVERY OF ADENOSINE A2A RECEPTOR AGONISTS IN COMBINATION WITH OTHER AGENTS TO REDUCE MYOCARDIAL INJURY” (priority 2010, published 2012).

Key:
[1] = system: platelet deposition and thrombus formation on the stent surface; assay: In vitro bovine blood loop model (anti-thrombotic activity); conditions: FIG. 12, cilostazol in sirolimus/cilostazol coatings
From the text: The anti-thrombotic efficacy of the above-described three configurations is illustrated in FIG. 12. FIG. 12 illustrates the anti-thrombotic properties of the sirolimus/cilostazol combination coatings described above in an in vitro bovine blood loop model. In the in vitro bovine blood loop model, fresh bovine blood is heparinized to adjust for acute clotting time (ACT) of about two hundred (200) seconds. The platelet content in the blood is labeled through the use of Indium 111. In the study, a stent is deployed in a silicone tube, which is part of a closed loop system for blood circulation. The heparinzed blood is circulated through the closed loop system by means of a circulating pump. Activated platelets, fibrin and thrombus builds up on a stent surface over time and reduces the flow rate of blood through the stented loop. The flow is stopped when the flow rate is reduced to fifty (50) percent of the starting value or at ninety (90) minutes if none of the tested stent reduces the flow by fifty (50) percent. The total radioactivity (In 111) on the stent surface is counted by a […] and normalized with the control unit, set as one hundred (100) percent in the chart. […]

[2] = Porcine drug elution PK study of dual drug eluting coating (in vivo release); design: species or system pig; conditions: after eight (8) days of implantation, single layer configuration of FIG. 15 (FIG. 13)
From the text: Another critical parameter for the performance of the thrombus resistance of a device coated with cilostazol is the duration of the drug release from the coating. This is of particular significance in the two weeks after device implantation. In the porcine drug elution PK studies of the dual drug eluting coating, both cilostazol and sirolimus were slowly released from the coating, resulting in a sustained drug release profile. The purpose of the porcine PK study is to assess the local pharmacokinetics of a drug eluting stent at a given implantation time. Normally three stents are implanted in three different coronary arteries in a pig for a given time point and then retrieved for total drug recovery analysis. The stents are retrieved at predetermined time points; namely, 1, 3 and 8 days. The stents are extracted and the total amount of drug remaining on the stents is determined by analysis utilizing HPLC (high performance liquid chromatography) for total drug amount. The difference between the original amount of drug on the stent and the amount of drug retrieved at a given time represents the amount of drug released in that period. The continuous release of drug into surrounding arterial tissue is what prevents the neointimal growth and restenosis in the coronary artery. A normal plot represents the percentage of total drug released (%, y-axis) vs. time of implantation (day, x-axis). […]

[3] = In vitro release kinetics of sirolimus/cilostazol stent coatings; format: physicochemical
[4] = In vivo release kinetics from dual drug reservoir stent, porcine coronary artery model; conditions: at thirty (30) days, 3.5×17 mm reservoir stent, PLGA75/25, in vivo (FIG. 18)
From the text: FIG. 18 graphically illustrates the release kinetic curves for sirolimus 1902 and cilostazol 1904 over a period of thirty (30) days from an in vivo release kinetics study. As illustrated, the release kinetics are similar for both drugs with approximately seventy (70) percent of both drugs being released from the stent at thirty (30) days (sirolimus being a little higher than the cilostazol). A 3.5×17 mm stent with reservoirs was utilized in the study. Each drug was placed individually in a reservoir to create an alternating pattern. The basic construct of each reservoir fill was a base (luminal side of the stent) comprising only polymer (PLGA75/25) and no drug, a drug matrix either comprising 120.4 micro grams of cilostazol and 197.1 micro grams of polymer (PLGA75/25) or 146.9 micro grams of sirolimus and 175.0 micro grams of polymer (PLGA75/25), and a cap comprising only polymer (PLGA75/25). The stent was placed in a standard porcine coronary artery model to evaluate the in vivo release kinetics and tissue concentration of both drugs released from the stent over time.

[5] = cited from earlier work

SMILES | thrombus formation [1] | drug remained in the drug coating [2] [%] | drug release rate, 200 µg vs 100 µg BMA diffusion overcoat ([3]; configuration of FIG. 7 (200 µg BMA) compared with FIG. 9 (100 µg BMA), FIGS. 8 and 10) | in vitro release rate compared to the dual drug base coating ([3]; configuration of FIG. 7 vs FIG. 15) | in vitro release ([3]; single layer configuration of FIG. 15 (FIG. 14)) [%] | drug released from the stent [4] [%] | solubility in water [5]
O=C1CCc2cc(OCCCCc3nnnn3C3CCCCC3)ccc2N1 [cilostazol, 6[4-(1-cyclohexyl-1H-tetrazol-5-yl)-butoxy]-3,4-dihydro-2-(1H)-quinolinone] | significantly reduces thrombus formation | ~80 | comparatively slower | much faster rate | ~35 | ~70 | relatively low solubility in water
CO[C@H]1C[C@@H]2CC[C@@H](C)[C@@](O)(O2)C(=O)C(=O)N2CCCC[C@H]2C(=O)O[C@H]([C@H](C)C[C@@H]2CC[C@@H](O)[C@H](OC)C2)CC(=O)[C@H](C)/C=C(\C)[C@@H](O)[C@@H](OC)C(=O)[C@H](C)C[C@H](C)/C=C/C=C/C=C/1C [sirolimus] | – | ~80 | – | – | – | ~70 | –
